In the test the test system is seizures. Briefly: Reduction in the number of seizures in individuals with multiple daily seizures treated with rapamycin. The format is in vivo, human. The settings on record: up to 7 mg/day rapamycin in combination with an anti-epileptic drug regimen, treatment 31-32 months. How it is done: In particular, 14 individuals experiencing multiple daily seizures (4 males with diagnosed TSC, 5 females with diagnosed TSC, 1 person with diagnosed Lennox-Gastaut Syndrome, and 4 females with diagnosed Lennox-Gastaut Syndrome) between the ages of 3-18 were administered rapamycin in combination with an anti-epileptic drug regimen. […] Each individual received between up to 7 mg/day of rapamycin. […] The duration of treatment was between 31 and 32 months.

Turning to `CO[C@H]1C[C@@H]2CC[C@@H](C)[C@@](O)(O2)C(=O)C(=O)N2CCCC[C@H]2C(=O)O[C@H]([C@H](C)C[C@@H]2CC[C@@H](O)[C@H](OC)C2)CC(=O)[C@H](C)/C=C(\C)[C@@H](O)[C@@H](OC)C(=O)[C@H](C)C[C@H](C)/C=C/C=C/C=C/1C` [rapamycin, Rapamycin], the reduction in seizures result by setting is: (2 of the individuals diagnosed with TSC) “greater than 90%”; (3 of the individuals diagnosed with Lennox-Gastaut Syndrome) “greater than 90%”; (5 of the individuals diagnosed with Lennox-Gastaut Syndrome) “greater than 50%”; (5 of the individuals diagnosed with TSC) “greater than 50%”.

The record behind these values is patent publication US20080188461A1, “Compositions and methods for detecting, preventing and treating seizures and seizure related disorders” (Regents of the University of Michigan, priority 2007, published 2008).
